Experimental data from patent US4742049A, “Semisynthetic erythromycin antibiotics” (Abbott Laboratories, priority 1986, dated 1988).
Converted amounts (≈) assume the structure as drawn. “And” between values parts separate entries of the source, which are not always exact repeats. Equal entries are not always repeated. Where two headings read alike, the source gives them in different places.

Assays:
Ent. aerogenes = test: antimicrobial spectrum, agar dilution MIC; format: cell-based
Pseudomonas aeruginosa = test: antimicrobial spectrum, agar dilution MIC; format: cell-based; conditions: BHI agar, 20-24 hours
Description: (§1) Twelve petri dishes containing successive aqueous dilutions of the test compound mixed with 10 ml of sterilized Brain Heart Infusion agar (Difco 0418-01-5) are prepared. Each plate is inoculated with 1:100 (or 1:10 for slow-growing strains, primarily Micrococcus and Streptococcus) dilutions of up to 32 different microorganisms, using a Steers replicator block. The inoculated plates are incubated at 35°-37° C. for 20-24 hours. In addition, a control plate, using BHI agar containing no test compound, is prepared and incubated at the beginning and end of each test.
(§2) An additional plate containing a compound having known susceptibility patterns for the organisms being tested and belonging to the same antibiotic class as the test compound is also prepared and incubated as a further control, as well as to provide test-to-test comparability.
(§3) After incubation, each disk is read. The MIC is defined as the lowest concentration of drug yielding no growth, a slight haze, or sparsely isolated colonies on the inoculum spot as compared to the growth control.

Strep. agalactiae = test: antimicrobial spectrum, agar dilution MIC; format: cell-based; conditions: Streptococcus agalactiae; strain CMX 633; BHI agar, 20-24 hours; read-out: MIC
Description: as §1, §2, §3

Strep. pyogenes = test: antimicrobial spectrum, agar dilution MIC; format: cell-based; conditions: BHI agar, 20-24 hours
Description: as §1, §2, §3

Strep. pneumoniae = test: antimicrobial spectrum, agar dilution MIC; format: cell-based; conditions: Streptococcus pneumoniae, BHI agar, 20-24 hours
Description: as §1, §2, §3

Strep. faecium = test: antimicrobial spectrum, agar dilution MIC; format: cell-based; conditions: Enterococcus faecium, BHI agar, 20-24 hours
Description: as §1, §2, §3

Staph. epidermidis = test: antimicrobial spectrum, agar dilution MIC; format: cell-based; conditions: Staphylococcus epidermidis, BHI agar, 20-24 hours
Description: as §1, §2, §3

Staph. aureus = test: antimicrobial spectrum, agar dilution MIC; format: cell-based; conditions: Staphylococcus aureus, BHI agar, 20-24 hours
Description: as §1, §2, §3

Providencia stuartii = test: antimicrobial spectrum, agar dilution MIC; format: cell-based; conditions: strain CMX 640, BHI agar, 20-24 hours
Description: as §1, §2, §3

Strep. faecalis = test: antimicrobial spectrum, agar dilution MIC; format: cell-based; conditions: Enterococcus faecalis, BHI agar, 20-24 hours
Description: as §1, §2, §3

Strep. bovis = test: antimicrobial spectrum, agar dilution MIC; format: cell-based; conditions: Streptococcus equinus, strain A5169; BHI agar, 20-24 hours; read-out: MIC
Description: as §1, §2, §3

Pseudomonas cepacia = test: antimicrobial spectrum, agar dilution MIC; format: cell-based; conditions: strain 2961, BHI agar, 20-24 hours
Description: Erythromycin A was used for this purpose.
After incubation, each disk is read.

Staph. saprophyticus = test: microbe, parasite or virus in culture; conditions: Staphylococcus saprophyticus, ATCC15305
Description: as §1, §2, §3

Klebsiella pneumoniae = test: antimicrobial spectrum, agar dilution MIC; format: cell-based; conditions: strain 8045, BHI agar, 20-24 hours
Micrococcus luteus = test: antimicrobial spectrum, agar dilution MIC; format: cell-based; conditions: strain 4698, BHI agar, 20-24 hours
Staph. aureus NCTC 10649 = test: acute mouse protection test; conditions: for ED50: Staphylococcus aureus, NCTC10649, in Mus musculus, 168 h, dosed 1 and 5 hours post-infection, observed 7 days; for # Died: ten mice
Description: The acute mouse protection test is conducted on ten mice with each of three levels of drug.
The acute mouse protection test is conducted on female, Swiss albino mice, 18-20 grams in weight. The mice are injected intraperitoneally with an 18-hour culture of the indicated test organism diluted sufficiently to provide the desired LD50 value. To check the potency of the inoculum, a titration of the indicated test organism is carried out in control animals. […] The ED50 values are calculated using the mortality data collected.

## CC[C@H]1OC(=O)[C@H](C)[C@@H](O[C@H]2C[C@@](C)(OC)[C@@H](O)[C@H](C)O2)[C@H](C)[C@@H](O[C@@H]2O[C@H](C)C[C@H](N(C)C)[C@H]2O)[C@](C)(O)C[C@@H](C)C(=O)[C@H](C)[C@@H](O)[C@]1(C)O [Erythromycin A]
Ent. aerogenes; Klebsiella aerogenes, ATCC10348
  MIC: 100 µg/mL (≈ 136 µM)
Ent. aerogenes; Klebsiella aerogenes, ATCC13048, strain ATCC 13048, BHI agar, 20-24 hours, read-out: MIC
  MIC: 50 µg/mL (≈ 68.1 µM)
Ent. aerogenes; strain ATCC 10348, BHI agar, 20-24 hours
  MIC: 50 µg/mL (≈ 68.1 µM)
Pseudomonas aeruginosa; Pseudomonas aeruginosa, strain 5007
  MIC: 200 µg/mL (≈ 273 µM)
Pseudomonas aeruginosa; Pseudomonas aeruginosa, strain BMH10
  MIC: 100 µg/mL (≈ 136 µM)
Pseudomonas aeruginosa; Pseudomonas aeruginosa, strain K799/61
  MIC: 1.56 µg/mL (≈ 2.13 µM)
Pseudomonas aeruginosa; Pseudomonas aeruginosa, strain K799/WT
  MIC: 200 µg/mL (≈ 273 µM)
Pseudomonas aeruginosa; strain 5007
  MIC: > 100 µg/mL
Pseudomonas aeruginosa; strain K799/WT
  MIC: > 100 µg/mL and 100 µg/mL
Strep. agalactiae
  MIC: 0.015 µg/mL (≈ 0.0204 µM)
Strep. pyogenes; Streptococcus pyogenes, strain 930, read-out: MIC
  MIC: > 200 µg/mL
Strep. pyogenes; Streptococcus pyogenes, strain C203, read-out: MIC
  MIC: 0.002 µg/mL (≈ 0.00273 µM)
Strep. pyogenes; Streptococcus pyogenes, strain EES61, read-out: MIC
  MIC: 0.06 µg/mL (≈ 0.0818 µM)
Strep. pyogenes; Streptococcus pyogenes, strain M79061-98
  MIC: 1 µg/mL (≈ 1.36 µM)
Strep. pyogenes; Streptococcus pyogenes, strain M79061-139, read-out: MIC
  MIC: 0.015 µg/mL (≈ 0.0204 µM)
Strep. pyogenes; Streptococcus pyogenes, strain M79061-140, read-out: MIC
  MIC: 0.008 µg/mL (≈ 0.0109 µM)
Strep. pyogenes; strain 930
  MIC: > 100 µg/mL
Strep. pneumoniae; strain 78-008107
  MIC: 32 µg/mL (≈ 43.6 µM)
Strep. pneumoniae; strain CMX 635, read-out: MIC
  MIC: 0.015 µg/mL (≈ 0.0204 µM)
Strep. pneumoniae; strain CMX 698, read-out: MIC
  MIC: 0.008 µg/mL (≈ 0.0109 µM)
Strep. faecium; ATCC8043, strain ATCC 8043
  MIC: 0.1 µg/mL (≈ 0.136 µM)
Strep. faecium; ATCC8043, strain ATCC 8043, read-out: MIC
  MIC: 0.06 µg/mL (≈ 0.0818 µM)
Staph. epidermidis; strain 3519, read-out: MIC
  MIC: 0.21 µg/mL (≈ 0.286 µM)
Staph. epidermidis; strain 3519 RARI
  MIC: 0.2 µg/mL (≈ 0.273 µM)
Staph. epidermidis; strain CMX 728, read-out: MIC
  MIC: 0.06 µg/mL (≈ 0.0818 µM)
Staph. epidermidis; strain GYR 1151, read-out: MIC
  MIC: 0.12 µg/mL (≈ 0.164 µM)
Staph. aureus; ATCC6538P, strain ATCC 6538P, read-out: MIC
  MIC: 0.12 µg/mL (≈ 0.164 µM)
Staph. aureus; ATCC25923, strain ATCC 25923, read-out: MIC
  MIC: 0.06 µg/mL (≈ 0.0818 µM)
Staph. aureus; NCTC10649, strain NCTC 10649, read-out: MIC
  MIC: 0.06 µg/mL (≈ 0.0818 µM)
Staph. aureus; strain 45 RAR 2
  MIC: 0.2 µg/mL (≈ 0.273 µM)
Staph. aureus; strain 642A, read-out: MIC
  MIC: 0.12 µg/mL (≈ 0.164 µM)
Staph. aureus; strain A5177, read-out: MIC
  MIC: 0.78 µg/mL (≈ 1.06 µM)
Staph. aureus; strain CMX 686B, read-out: MIC
  MIC: 0.12 µg/mL (≈ 0.164 µM)
Staph. aureus; strain CMX 705, read-out: MIC
  MIC: 0.06 µg/mL (≈ 0.0818 µM)
Staph. aureus; strain CMX 730A, read-out: MIC
  MIC: 0.06 µg/mL (≈ 0.0818 µM)
Staph. aureus; strain CMX 739A, read-out: MIC
  MIC: 0.06 µg/mL (≈ 0.0818 µM)
Staph. aureus; strain GYR 1150, read-out: MIC
  MIC: 0.06 µg/mL (≈ 0.0818 µM)
Staph. aureus; strain GYR 1162, read-out: MIC
  MIC: 0.06 µg/mL (≈ 0.0818 µM)
Providencia stuartii
  MIC: > 100 µg/mL
Providencia stuartii; read-out: MIC
  MIC: > 200 µg/mL
Strep. faecalis; strain CMX 663F
  MIC: 2 µg/mL (≈ 2.73 µM)
Strep. faecalis; strain CMX 729G
  MIC: 0.5 µg/mL (≈ 0.681 µM)
Strep. faecalis; strain CMX 736F
  MIC: 0.5 µg/mL (≈ 0.681 µM)
Strep. faecalis; strain GYR 1164
  MIC: 0.5 µg/mL (≈ 0.681 µM)
Strep. faecalis; strain GYR 1166
  MIC: 0.5 µg/mL (≈ 0.681 µM)
Strep. faecalis; strain GYR 1167
  MIC: 4 µg/mL (≈ 5.45 µM)
Strep. bovis
  MIC: 0.01 µg/mL (≈ 0.0136 µM)
Pseudomonas cepacia; Burkholderia cepacia, read-out: MIC
  MIC: 200 µg/mL (≈ 273 µM)
Pseudomonas cepacia
  MIC: > 100 µg/mL
Staph. saprophyticus
  MIC: 0.03 µg/mL (≈ 0.0409 µM)
Klebsiella pneumoniae
  MIC: 50 µg/mL (≈ 68.1 µM)
Micrococcus luteus
  MIC: 0.1 µg/mL (≈ 0.136 µM)
Staph. aureus NCTC 10649; po, dosage medium Carboxymethylcellulose
  ED50: 48.8 mg/kg
Staph. aureus NCTC 10649; po, dosage medium PBS
  ED50: 75.7 mg/kg
Staph. aureus NCTC 10649; sc, subcutaneous, dosage medium Injectable solution
  ED50: 10.9 mg/kg
Staph. aureus NCTC 10649; oral, Carboxymethylcellulose, 15.6 mg/kg
  # Died: 8
Staph. aureus NCTC 10649; oral, Carboxymethylcellulose, 37.5 mg/kg
  # Died: 5
Staph. aureus NCTC 10649; oral, Carboxymethylcellulose, 250.0 mg/kg
  # Died: 0
Staph. aureus NCTC 10649; oral, PBS, 15.6 mg/kg
  # Died: 10
Staph. aureus NCTC 10649; oral, PBS, 37.5 mg/kg
  # Died: 4
Staph. aureus NCTC 10649; oral, PBS, 250.0 mg/kg
  # Died: 0
Staph. aureus NCTC 10649; subcutaneous, Injectable solution, 2.5 mg/kg
  # Died: 10
Staph. aureus NCTC 10649; subcutaneous, Injectable solution, 10.0 mg/kg
  # Died: 6
Staph. aureus NCTC 10649; subcutaneous, Injectable solution, 40.0 mg/kg
  # Died: 0
